Test results published in EP1100483B1, “GLUCOCORTICOID-SELECTIVE ANTI-INFLAMMATORY AGENTS” (Abbott Laboratories, priority 1998, dated 2000).

These molecules were tested against T1, human glucocorticoid receptor-α [GRX] isoform (Homo sapiens, UniProt P04150) (assay: glucocorticoid receptor (GR) cytosol binding assay, [3H]-dexamethasone competition). Conditions: not given.
T1 construct: purchased Ligand Pharmaceuticals (San Diego, CA); host or cells: insect SF21 cells (baculovirus)
T1 sequence (P04150 1-777): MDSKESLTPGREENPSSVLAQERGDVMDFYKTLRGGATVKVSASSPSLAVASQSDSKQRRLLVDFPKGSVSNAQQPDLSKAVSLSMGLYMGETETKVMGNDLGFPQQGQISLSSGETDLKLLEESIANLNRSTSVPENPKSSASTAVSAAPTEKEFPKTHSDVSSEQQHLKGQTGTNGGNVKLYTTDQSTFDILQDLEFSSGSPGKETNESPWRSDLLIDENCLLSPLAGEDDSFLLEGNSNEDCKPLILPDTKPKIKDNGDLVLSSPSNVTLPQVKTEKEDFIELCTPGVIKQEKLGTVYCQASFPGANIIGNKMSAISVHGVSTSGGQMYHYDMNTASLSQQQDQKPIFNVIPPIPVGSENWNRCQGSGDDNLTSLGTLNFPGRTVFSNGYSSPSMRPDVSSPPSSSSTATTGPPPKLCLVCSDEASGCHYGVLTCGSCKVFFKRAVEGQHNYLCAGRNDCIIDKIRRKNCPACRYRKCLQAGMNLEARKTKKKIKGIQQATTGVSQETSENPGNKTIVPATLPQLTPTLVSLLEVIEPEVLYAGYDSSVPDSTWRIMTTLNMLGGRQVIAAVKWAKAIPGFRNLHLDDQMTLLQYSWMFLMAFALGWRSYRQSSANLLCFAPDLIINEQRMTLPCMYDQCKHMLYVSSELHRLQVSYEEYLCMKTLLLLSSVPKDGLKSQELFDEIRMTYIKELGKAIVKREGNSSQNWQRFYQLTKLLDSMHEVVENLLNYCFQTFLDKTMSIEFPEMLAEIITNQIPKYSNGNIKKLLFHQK
Excerpt: For glucocorticoid receptor (OR) cytosol binding assays, the procedure described in Anal. […] Briefly, cytosol preparations of human glucocorticoid receptor-α [GRX] isoform and human progesterone receptor-A [PRA] isoform were obtained from Ligand Pharmaceuticals (San Diego, CA). Both receptor cDNAs were cloned into baculovirus expression vectors and expressed in insect SF21 cells. […] Glass fiber type C multiscreen MAFC NOB plates were from Millipore ( Burlington, MA). Hydroxyapatide Bio-Gel HTP gel was obtained from Bio-Rad Laboratories (Hercules. CA). Tris(hydroxymethyl)aminomethane (Tris), ethylenediaminetetraacetic acid (EDTA), glycerol, dithiothreitol (DTT) and sodium moylybdate were obtained from Sigma Chemicals (St. Louis, MO). Microscint-20 scintillation fluid was obtained from Packard Instrument (Meriden, CT). […] GRX and PRA binding reactions were performed in Millipore Multiscreen plates. […] Specific binding was defined as the difference between binding of [^3H]Dex in the absence and in the presence of 1µM unlabeled Dex. After an overnight incubation, 50 µL of hydroxyapatite (25 % weight/volume) slurry were added to each well and plates were incubated for 10 min at 4 °C in a plate shaker. Plates were suctioned with a Millipore vacuum manifold and each well was rinsed with 300 µL of ice-cold binding buffer. A 250 µL aliquot of Packard Microscint-20 was added to each well and the wells were shaken at room temperature for 20 minutes. The amount of radioactivity was determined with a Packard TopCount plate reader.
`CNc1ccc(C(c2ccc(N(C)C)cc2)c2cc([N+](=O)[O-])ccc2Cl)cc1` (stereo not shown) [Example 39, 4'-dimethylamino-4"-methylamino-2-chloro-5-nitrotriphenylmethane] was tested, and the Ki was 127 nM. `CN(C)c1ccc(C(c2ccc(N(C)CCO)cc2)c2cc([N+](=O)[O-])ccc2Cl)cc1` (stereo not shown) [Example 42, 4'-dimethylamino-4"-(N-methyl-N-(2-hydroxyethyl)amino)-2-chloro-5-nitrotriphenylmethane] showed a Ki of 109 nM. Molecule `CC(=O)OCCN(C)c1ccc(C(c2ccc(N(C)C)cc2)c2cc([N+](=O)[O-])ccc2Cl)cc1` (stereo not shown) [Example 51, 4'-dimethylamino-4"-(N-methyl-N-(2-acetoxyethyl)amino)-2-chloro-5-nitrotriphenylmethane] has a Ki of 167 nM. Molecule `CN(C)c1ccc(C(c2ccc(N(C)C)cc2)c2cc(Cl)ccc2Cl)cc1` [Example 24, 4',4" bis(dimethylamino)-2,5-dichlorotriphenylmethane] has a Ki of 306 nM.

Same assay, conditions: [3H]-Dex ~0.9 nM, GRX cytosol, 4 °C overnight; Cheng-Prusoff; read-out: Ki (nM) GR
`CNc1ccc(C(c2ccc(NC)cc2)c2cc(Cl)ccc2Cl)cc1` [Example 27, 4',4" bis(methylamino)-2,5-dichlorotriphenylmethane] showed a Ki of 71 nM. `CNc1ccc(C(c2ccc(N(C)CCOC(C)=O)cc2)c2cc([N+](=O)[O-])ccc2Cl)cc1` (stereo not shown) [Example 49, 4'-methylamino-4"-(N-(2-acetoxyethyl)-N-methylamino)-2-chloro-5-nitrotriphenylmethane] was tested, and the Ki was 135 nM. For `CC(=O)OCCN(C)c1ccc(C(c2ccc(N(C)CCOC(C)=O)cc2)c2cc([N+](=O)[O-])ccc2Cl)cc1` [Example 31, 4',4" bis(N-(2-acetoxyethyl) N-methylamino)-2-chloro-5-nitrotriphenylmethane], the Ki was 145 nM. `CN(C)c1ccc(C(c2ccc(N(C)C)cc2)c2cc([N+](=O)[O-])ccc2Cl)cc1` [Example 1, 4',4" bis(dimethylamino)-2-chloro-5-nitrotriphenylmethane] showed a Ki of 272 nM. `CNc1ccc(C(c2ccc(NC)cc2)c2cc([N+](=O)[O-])ccc2Cl)cc1` [Example 23, 4',4" bis(methylamino)-2-chloro-5-nitrotriphenylmethane] showed a Ki of 60 nM. `CN(C)c1ccc(C(Oc2ccccc2)c2cc([N+](=O)[O-])ccc2Cl)cc1` (stereo not shown) [Example 52, phenyl-[(4'-dimethylaminophenyl)-(2-chloro-5-nitrophenyl)methyl] ether] was tested, and the Ki was 733 nM. With `CN(CCO)c1ccc(C(c2ccc(N(C)CCO)cc2)c2cc([N+](=O)[O-])ccc2Cl)cc1` [Example 32, 4',4" bis(N-(2-hydroxyethyl) N-methylamino)-2-chloro-5-nitrotriphenylmethane] the Ki was 136 nM. `O=[N+]([O-])c1ccc(Cl)c(C(c2ccc(NCc3ccccc3)cc2)c2ccc(NCc3ccccc3)cc2)c1` [Example 36, 4',4" bis(N-benzylamino)-2-chloro-5-nitrotriphenylmethane] showed a Ki of 38 nM. `CN(C)c1ccc(C(Sc2ccccc2)c2cc([N+](=O)[O-])ccc2Cl)cc1` (stereo not shown) [Example 54, phenyl-[(4'-dimethylaminophenyl)-(2-chloro-5-nitrophenyl)methyl]thioether] was tested, and the Ki was 227 nM.
